# pIC50: −log10 of the molar value.
# Test system: COLO 205 cells
# Experiment: Cell viability bioassay (CELL TITER-GLO) on COLO 205 cells
# Type: cell-based, Human
# Settings: colorectal cancer cells COLO-205; read-out: potency in cell viability bioassay
# Description: TLY012 is a PEGylated form of rhTRAIL, genetically fused to a humanized coiled-coil isoleucine “zipper” (miLZ) at the N-terminus. It is a DR4/DR5 receptor agonist and as such is known to induce apoptosis in Human colon adenocarcinoma cells COLO 205 resulting in inhibition of cell proliferation. CELL TITER-GLO™ (Promega, WI) was used to measure luminescence in conventional luciferase assay system. This assay is a homogeneous method to determine the number of metabolically active cells based on quantitation of the ATP present. […]
# Assay Procedure. […] The 96-well plates were placed into a 37±1.0° C.; 5±0.5% CO2; ≥85% relative humidity cell culture incubator in a single layer and incubated for 1±0.5 hours until cells are ready. […] As a result, inhibition of cell proliferation is measured by adding the CELL TITER-GLO™ solution to the cells, the lysed cells release ATP. […]
# The growth medium was RPMI1640 with 10% FBS, glutamine, penicillin/streptomycin solution. […] Cell suspension was transferred to the white 96-well plates and luminescence was measured by BIOTEK plate reader.
# Data were analyzed using BioTek Gen5secure software. The dose response curves were generated using the four-parameter fit logistic model and the IC50 values for reference standard and test samples were calculated. Potency of the test sample is expressed as the ratio of the IC50 values of the test and reference standard samples. […]
substance,measurement,value
TLY012: PEGylated (5 kDa PEG-aldehyde) recombinant human TRAIL (114-281) fused to modified isoleucine zipper (miLZ) at N-terminus; SEQ ID NO:30 trimer,pIC50,10.81

# From patent US11767353B2, “Trail compositions with reduced immunogenicity” (Theraly Fibrosis, Inc., priority 2020, dated 2023)
